Measured values reported in patent publication US20160199535A1, “Controlled and Localized Release of Retinoids to Improve Neointimal Hyperplasia” (VesselTek BioMedical LLC, priority 2008, published 2016).
≈ marks a conversion by molar mass, not a printed value.

Tests used:
[1] = cited from earlier work
[2] = system: human monocytic THP-1 cells; test: Assessment of inflammatory potential, marker expression via ELISA; assay type: cell-based; conditions: THP-1 cell suspension exposed to material films, LPS positive control
Method: For assessment of inflammatory potential, a suspension of human monocytic THP-1 cells was exposed to POC, TCP, PLGA, and ePTFE films. Afterwards, the expression of tissue factor, IL-6, and TNF-α was measured via ELISA. Addition of lipopolysaccharide (LPS) to the cells was used as a positive control.

Compound	solubility in dimethylsulfoxide (DMSO) ([1]; DMSO)	solubility in chloroform ([1]; chloroform)	solubility in dichloromethane ([1]; dichloromethane)	solubility in ethanol ([1]; ethanol) [µg/mL]	solubility in water ([1]; water)	TNF-α expression [2]	Tissue factor expression [2]
CC1=C(/C=C/C(C)=C/C=C/C(C)=C/C(=O)O)C(C)(C)CCC1 [ATRA, All-trans retinoic acid]	soluble	soluble	soluble	3000 (≈ 9.99 mM)	not readily soluble	–	–
lipopolysaccharide [LPS]	–	–	–	–	–	874 ± 531	536 ± 81
